Source: patent US5085993A, “Coenzyme-independent L-sorbosone dehydrogenase from Pseudomonas putida” (Hoffmann-La Roche Inc., priority 1987, dated 1992)
Like-named read-outs stand apart in the source and are kept apart here.

What was measured:
[1] = tested on: coenzyme independent L-sorbosone dehydrogenase of P. putida ATCC 21812
Experimental: Enzyme assay was carried out at 25° C. by measuring the decrease of absorbance at 600 nm of DCIP spectrophotometrically. One unit of enzyme activity was defined as the amount of enzyme which catalyzed the reduction of 1 μmole of DCIP per minute. The extinction coefficient of DCIP at pH 7.0 was taken as 9.45 mM^-1.
The basal reaction mixture was prepared by mixing 6 ml of 0.1M potassium phosphate buffer (pH 7.0) containing 0.3% Triton X-100, 0.45 ml of 2.5 mM DCIP and 10.35 ml of water. A cuvette with 1 cm light path contained 0.4 ml of basal reaction mixture, 20 μl of 10 mM phenazine methosulfate, 10 μl of enzyme solution and 20 μl of 110 mM L-sorbosone solution. A reference cuvette contained all the reagents except enzyme solution, but 10 μl of water was added instead. The reaction was started by the addition of the substrate.

[2] = tested on: coenzyme independent L-sorbosone dehydrogenase from P. putida ATCC 21812; assay: Measurement of the Km value (DCIP/phenazine methosulfate enzyme assay); assay type: biochemical, Pseudomonas putida ATCC 21812; details: DCIP and phenazine methosulfate as electron acceptors; 25° C., pH 7.0; read-out: apparent Michaelis constant (Km) for L-sorbosone
Experimental: In the procedure described under 1) above, the velocities of oxidizing reactions with varying concentrations of L-sorbosone were measured to determine the apparent Michaelis constant (Km) for L-sorbosone. Km value was calculated to be 13±2 mM with DCIP and phenazine methosulfate as electron acceptors.

[3] = tested on: coenzyme independent L-sorbosone dehydrogenase of P. putida ATCC 21812; assay: Effect of addition of PQQ on the enzyme activity; assay type: biochemical, Pseudomonas putida ATCC 21812; details: 0 PQQ = 100
Excerpt: Significant increase of the enzyme activity was observed by the addition of PQQ.

## O=C(O)CI [ICH2 COOH, monoiodoacetate]
[1]
  Relative activity (%): 88.6%

## O=CC(=O)[C@@H](O)[C@H](O)[C@@H](O)CO [L-sorbosone]
[2]
  Km: 13 ± 2 mM

## [N-]=[N+]=[N-].[Na+] [NaN3, Sodium azide]
[1]; inhibitor 25.0 mM, None = 100.0
  Relative activity (%): 77.3%

## O=C(O)c1cc(C(=O)O)c2c(n1)C(=O)C(=O)c1cc(C(=O)O)[nH]c1-2 [PQQ, pyrroloquinoline quinone]
[3]; PQQ concentration 0.1 (Micro Moles)
  Relative enzyme activity: 106
[3]; PQQ concentration 0.2 (Micro Moles), 0.2 µM
  Relative enzyme activity: 142
[3]; PQQ concentration 0.5 (Micro Moles), 0.5 µM
  Relative enzyme activity: 150
[3]; PQQ concentration 0.9 (Micro Moles), 0.9 µM
  Relative enzyme activity: 158
[3]; PQQ concentration 6.0 (Micro Moles), 6 µM
  Relative enzyme activity: 174
[3]; PQQ concentration 15.0 (Micro Moles), 15 µM
  Relative enzyme activity: 192
